Assay results from patent publication US6818619B2, “Chimeric natriuretic peptides” (Mayo Foundation for Medical Education and Research, priority 1999, dated 2004).
Several values for one entry are separate records, joined by “and”; a condition that tells them apart may be missing. Identical values can stand only once.

Test system: normal rats
Assay: Cardiorenal actions of bolus ANP, CNP, VNP in anesthetized normal rats
Type: in vivo, rat
[1] = normal rats, Recovery (after 30 minute washout)

Molecule: C-type natriuretic peptide (GLSKGCFGLKLDRIGSMSGLGC) [CNP]
- HR heart rate (rat, in vivo): 363 ± 19 beats/minute and 365 ± 19 beats/minute and 363 ± 16 beats/minute
- MAP mean arterial pressure (rat, in vivo): 100 ± 12 mmHg and 87 ± 9*+ mmHg and 104 ± 11*¶ mmHg

Molecule: CC[C@H](C)[C@@H]1NC(=O)[C@H](CCCNC(=N)N)NC(=O)[C@H](CC(=O)O)NC(=O)[C@H](CCSC)NC(=O)[C@H](CCCNC(=N)N)NC(=O)CNC(=O)CNC(=O)[C@H](Cc2ccccc2)NC(=O)[C@@H](NC(=O)[C@H](CO)NC(=O)[C@H](CO)NC(=O)[C@H](CCCNC(=N)N)NC(=O)[C@H](CCCNC(=N)N)NC(=O)[C@H](CC(C)C)NC(=O)[C@@H](N)CO)CSSC[C@@H](C(=O)N[C@@H](CC(N)=O)C(=O)N[C@@H](CO)C(=O)N[C@@H](Cc2ccccc2)C(=O)N[C@@H](CCCNC(=N)N)C(=O)N[C@@H](Cc2ccc(O)cc2)C(=O)O)NC(=O)CNC(=O)[C@H](CC(C)C)NC(=O)CNC(=O)[C@H](CO)NC(=O)[C@H](CCC(N)=O)NC(=O)[C@H](C)NC(=O)CNC1=O [ANP, Atrial natriuretic peptide]
- HR heart rate (normal rats, 5 μg/kg bolus): 353 ± 14 beats/minute
- MAP mean arterial pressure (normal rats, 5 μg/kg bolus): 97 ± 12 mmHg
- RAP right atrial pressure (normal rats, 5 μg/kg bolus): −2.3 ± 0.8 mmHg
- UKV urine potassium excretion (normal rats, 5 μg/kg bolus): 10.3 ± 3.5 µmol/min
- UNaV urine sodium excretion (normal rats, 5 μg/kg bolus): 13.2 ± 3.5 µmol/min
- UV urine volume (normal rats, 5 μg/kg bolus): 79 ± 10 µL/min
- UcGMPV urine cGMP volume (normal rats, 5 μg/kg bolus): 605 ± 151 pmol/min
- HR heart rate (normal rats, 50 μg/kg bolus): 355 ± 19 beats/minute
- MAP mean arterial pressure (normal rats, 50 μg/kg bolus): 69 ± 7*+ mmHg
- RAP right atrial pressure (normal rats, 50 μg/kg bolus): −3.8 ± 0.8*+ mmHg
- UKV urine potassium excretion (normal rats, 50 μg/kg bolus): 24.4 ± 8.7 µmol/min
- UNaV urine sodium excretion (normal rats, 50 μg/kg bolus): 68.2 ± 15.7*+ μmol/minute
- UV urine volume (normal rats, 50 μg/kg bolus): 341 ± 41*+ μl/minute
- UcGMPV urine cGMP volume (normal rats, 50 μg/kg bolus): 2580 ± 505*+ pmol/minute
- HR heart rate [1]: 368 ± 23 beats/minute
- MAP mean arterial pressure [1]: 92 ± 11*¶ mmHg
- PcGMP plasma cGMP [1]: 3.2 − 63¶ pmol/ml
- RAP right atrial pressure [1]: −0.8 ± 0.9¶ mmHg
- UKV urine potassium excretion [1]: 2.4 ± 0.1 µmol/min
- UNaV urine sodium excretion [1]: 8.9 ± 3.5¶ μmol/minute
- UV urine volume [1]: 48 ± 14¶ μl/minute
- UcGMPV urine cGMP volume [1]: 105 ± 63¶ pmol/minute

Molecule: vasonatrin peptide [VNP]
- HR heart rate (rat, in vivo): 393 ± 20 beats/minute and 408 ± 25 beats/minute and 390 ± 20 beats/minute
- MAP mean arterial pressure (rat, in vivo): 93 ± 15 mmHg and 79 ± 15*+ mmHg and 93 ± 15*¶ mmHg
